From patent US7714014B2, “Targeting GLI proteins in human cancer by small molecules” (The Regents of the University of California, priority 2005, dated 2010)

Assays:
[1] = system: hedgehog pathway in melanoma cell line LOX, colon cancer cell line SW480 and primary cultured human mesothelioma cells; assay: Semi-quantitative RT-PCR of Hedgehog pathway genes; assay type: cell-based; settings: data not shown
Description: Total RNA from cell lines or tissue samples was isolated using Qiagen RNeasy Mini Kit (Valencia, Calif.). RT-PCR was performed in GeneAmp PCR system 2700 (Applied Biosystems, Foster City, Calif.) using One-step RT-PCR Kit from Invitrogen Life Technologies (Carlsbad, Calif.). Primers for RT-PCR were obtained from Operon Technologies Inc. (Alameda, Calif.). Primer sequences for amplifying different genes in Hedgehog and Wnt signaling pathways are listed in the table below (Table 1; F, forward primer; R, reverse primer). The expected size of the PCR product is indicated for each primer pair. GAPDH was used as internal control.

[2] = system: human Gremlin promoter in HEK 293T cells; assay: Gremlin promoter-luciferase reporter assay; assay type: cell-based; settings: 30 μM, 18-24 hours
Description: One day before transfection, cells (1×10^5) were plated in 12-well plates with growth medium without antibiotics. When cells reached 80-90% of confluence they were co-transfected using 0.5 μg of each promoter construct in pGL3Basic vector and 0.025 μg pRL-TK Vector (Promega; Madison, Wis.) containing Renilla Luciferase as an internal control for the transformation efficiency. Lipofectamine 2000™ (Invitrogen Life Technologies) was used to mediate transfection for about 6 hours. Then the medium was replaced with fresh medium containing various small molecule compounds at a concentration of 30 μM, and the resulting cells were cultured for an additional 18-24 hours and subjected to luciferase assay. Briefly, cells were lysed in a lysis buffer and Firefly and Renilla Luciferase activities in cells of each well, were measured using Dual-Luciferase Assay System (Promega) and an illuminometer. The measured luciferase activities were normalized to pRL-TK Vector activity and were given relative to the basal activity of empty pGL3-Basic Vector, which was set to unity. The data shown represent mean values (±S.D.). All measurements were performed in triplicate and repeated in at least three independent experiments. […]

[3] = system: mesothelioma cell lines MS-1 and REN; assay: Cell survival assay (crystal violet); assay type: cell-based, human; settings: 1, 10, and 30 μM, 3 days
Description: (§1) Typically, the small molecule compounds of the present invention were dissolved in DMSO at a concentration of 30 mM. The small molecule compounds were then tested under cell culture conditions at different concentrations ranging from 0, 10, 30, 50, to 100 uM. To determine cell survival after treatment, the cells were incubated with the small molecule compounds in 6-well plates for about 3 days. After removal of the cell culture medium, 1-ml of 0.5% crystal violet solution (prepared in 20% ethanol and 20% methanol) was added to stain the cells for 5 min. Then the crystal violet solution was rinsed clean with tap water. Cell survival was estimated based on the density of crystal stained plates.
(§2) Cell killing was also tested using mesothelioma cell lines H290, 211H, MS1 and REN and different doses of the small molecule compounds FN1-5 and FN1-8. Cells were plated in 6-well plates and incubated with 1, 10, and 30 μM of each compound for 3 days, as described herein. […] (data not shown).

[4] = system: mesothelioma cell lines H290 and 211H; assay: Cell survival assay (crystal violet); assay type: cell-based, human; settings: 30 μM, 3 days
Description: as §1, §2

HT29 (colon cancer) = assay: Apoptosis analysis (Annexin V FITC, flow cytometry); assay type: cell-based, human; settings: for % of apoptotic cells: about 3 days
Description: (§3) Apoptosis was analyzed by using an Annexin V FITC Apoptosis Detection Kit (Biosource, Camarillo, Calif.), according to the manufacturer's protocol. After treatment with different small molecule compounds at various concentrations for about 3 days, cells were harvested by trypsinization, stained and immediately analyzed by flow cytometry (FACScan; Decton Dickinson, Franklin Lake, N.J.). Early apoptotic cells with exposed phosphatidylserine but intact cell membranes will bind to Annexin V-FITC, but not propidium iodide (PI). Cells in necrotic or late apoptotic stages will be labeled with both Annexin V-FITC and PI. “% apoptotic cells” or “% apoptosis” refers to the combined early and late apoptotic cells.
Flow cytometry was used to examine apoptosis in colon cancer cell line HT29 after treatment of cells with small molecule compounds FN1-5 and FN1-8. While FN1-5 induced apoptosis in HT29 cells (at 50 μM 35% apoptotic cells were observed; Table 2), no apoptosis was observed after treatment with FN1-8 (Table 3).

[5] = system: human esophageal cancer cell lines SEG-1, TE-7, BIC-1, and OE21; assay: Cell survival assay (crystal violet); assay type: cell-based; settings: for cell killing: 50 μM
Description: as §1
The cell-based cytotoxicity assay described herein was used to determine the effect of small molecule compounds FN1-5 and FN1-8 in the human esophageal cancer cell lines SEG-1, TE-7, BIC-1, and OE21. Viability of these cells was analyzed after treatment with 10, 30 and 50 μM FN1-5 or FN1-8.

[6] = system: colon cancer cell line HT29; assay: Cell survival assay (crystal violet); assay type: cell-based, human; settings: FN1-8 even at higher doses (50 μM), data not shown
Description: as §1

[7] = system: NSCLC cell lines H460, H838, H1975, H1650, and H1703; assay: Cell survival assay (crystal violet); assay type: cell-based, human; settings: for cell killing: data not shown
Description: as §1

211H (mesothelioma) = assay: Apoptosis analysis (Annexin V FITC, flow cytometry); assay type: cell-based, human; settings: 3 days
Description: as §3
Flow cytometry was used to examine apoptosis in the mesothelioma cell line 211H after treatment of cells with small molecule compounds FN1-5 and FN1-8.

[8] = system: human nasopharyngeal cancer cell lines HNE1 and HONE1; assay: Cell survival assay (crystal violet); assay type: cell-based; settings: for cell killing: 50 μM
Description: as §1
The cell-based cytotoxicity assay described herein was used to determine the effect of small molecule compounds FN1-5 and FN1-8 in the human nasopharyngeal cancer cell lines HNE1 and HONE1. Viability of these cells was analyzed after treatment with 10, 30 and 50 μM FN1-5 or FN1-8.

| Compound | modulation of hedgehog pathway (RT-PCR) [1] | Gremlin promoter activity [2] | cell killing [3] | cell killing [4] | % of apoptotic cells (HT29 (colon cancer); HT29, 10 μM) | % of apoptotic cells (HT29 (colon cancer); HT29, 30 μM) | % of apoptotic cells (HT29 (colon cancer); HT29, 50 μM) | cell killing [5] | cell killing [6] | cell killing [7] | % of apoptotic cells (211H (mesothelioma); 10 μM) | % of apoptotic cells (211H (mesothelioma); 30 μM) | cell killing [8] | apoptosis induction (HT29 (colon cancer); HT29, flow cytometry) | cell killing potency compared with FN1-5 [5] | cell killing potency compared with FN1-5 ([7]; same concentrations) | cell killing potency compared with FN1-5 [8] |
| --- | --- | --- | --- | --- | --- | --- | --- | --- | --- | --- | --- | --- | --- | --- | --- | --- | --- |
| O=C(NCCCCCO)C1C(c2ccccc2)=NN(c2ccccc2)C1c1ccccc1 (centres unmarked) [FN1-5, N-(5-Hydroxypentyl)-1,3,5-triphenyl-4,5-dihydro-pyrazole-4-carboxyamide] | modulate the hedgehog pathway | inactive | no noticeable effect | Dramatic cell killing | 5.8% | 15.5% | 32.9% | dramatic cell killing | dramatic cell killing | dramatic cell killing | 7.7% | 37.5% | dramatic cell killing |  |  |  |  |
| O=C(NCCc1ccc(O)cc1)C1C(c2ccccc2)=NN(c2ccccc2)C1c1ccccc1 (centres unmarked) [FN1-8, N-(2-(4-Hydroxyphenyl)ethyl)-1,3,5-triphenyl-4,5-dihydro-pyrazole-4-carboxyamide] | modulate the hedgehog pathway | inactive | no noticeable effect | Dramatic cell killing |  | 3.1% | 5.3% | dramatic cell killing | no cell killing | dramatic cell killing | 5.6% | 30.7% | dramatic cell killing | no apoptosis | more potent | more potent than FN1-5 | more potent |
